In patent US4468511A, “C-20- And C-23-Modified macrolide derivatives” (Eli Lilly and Company, priority 1983, dated 1984):
≈ marks a conversion by molar mass, not a printed value. Like-named read-outs stand apart in the source and are kept apart here.

Experiments:
Format in all cases: cell-based
[1] = system: Escherichia coli EC14; assay: MIC, standard agar-dilution assay; conditions: agar-dilution; Escherichia coli EC14; read-out: MIC
Protocol: (§1) Certain of the derivatives are active against some gram-negative bacteria, such as Pasteurella species. The MIC's in Table II were determined by standard agar-dilution assays. The MIC's in Table III were obtained using a conventional broth-dilution microtiter test.

[2] = system: Escherichia coli TEM; assay: MIC, standard agar-dilution assay; conditions: agar-dilution; Escherichia coli TEM; read-out: MIC
Protocol: as §1

[3] = system: Klebsiella pneumoniae KAE; assay: MIC, standard agar-dilution assay; conditions: agar-dilution; Klebsiella pneumoniae KAE; read-out: MIC
Protocol: as §1

[4] = system: Klebsiella pneumoniae X26; assay: MIC, standard agar-dilution assay; conditions: agar-dilution; Klebsiella pneumoniae X26; read-out: MIC
Protocol: as §1

[5] = system: Staphylococcus aureus V41; assay: MIC, standard agar-dilution assay; conditions: Staphylococcus aureus, V41
Protocol: as §1

[6] = system: Staphylococcus aureus X1.1; assay: MIC, standard agar-dilution assay; conditions: Staphylococcus aureus, X1.1
Protocol: as §1

[7] = system: Streptococcus Group D X66; assay: MIC, standard agar-dilution assay
Protocol: as §1

[8] = system: Streptococcus pneumoniae Park I; assay: MIC, standard agar-dilution assay
Protocol: as §1

[9] = system: Streptococcus pyogenes 9960; assay: MIC, standard agar-dilution assay
Protocol: as §1

[10] = system: Streptococcus pyogenes C203; assay: MIC, standard agar-dilution assay
Protocol: as §1

[11] = system: Haemophilus influenzae 76; assay: MIC, standard agar-dilution assay
Protocol: (§2) The MIC's in Table II were determined by standard agar-dilution assays. The MIC's in Table III were obtained using a conventional broth-dilution microtiter test.

[12] = system: Haemophilus influenzae C.L.; assay: MIC, standard agar-dilution assay
Protocol: as §2

[13] = system: Staphylococcus aureus X400; assay: MIC, standard agar-dilution assay
Protocol: as §2

[14] = system: Staphylococcus epidermidis EPI2; assay: MIC, standard agar-dilution assay
Protocol: as §2

[15] = system: Staphylococcus aureus S13E; assay: microbe, parasite or virus in culture
Protocol: as §2

[16] = system: Staphylococcus epidermidis EPI1; assay: microbe, parasite or virus in culture
Protocol: as §2

[17] = system: Mycoplasma gallisepticum 34159; assay: MIC, conventional broth-dilution microtiter test; conditions: Mycoplasmoides gallisepticum; broth-dilution microtiter; Mycoplasma gallisepticum 34159, Resistant strain; read-out: MIC
Protocol: as §1

[18] = system: Mycoplasma gallisepticum 41313; assay: MIC, conventional broth-dilution microtiter test; conditions: Mycoplasmoides gallisepticum; broth-dilution microtiter; Mycoplasma gallisepticum 41313, Resistant strain; read-out: MIC
Protocol: as §1

[19] = system: Mycoplasma gallisepticum; assay: MIC, conventional broth-dilution microtiter test; conditions: Mycoplasmoides gallisepticum
Protocol: as §1

[20] = system: Mycoplasma hyorhinis; assay: MIC, conventional broth-dilution microtiter test
Protocol: as §1

[21] = system: Pasteurella hemolytica 22C; assay: MIC, conventional broth-dilution microtiter test; conditions: broth-dilution microtiter; Pasteurella hemolytica 22C; read-out: MIC
Protocol: as §1

[22] = system: Pasteurella hemolytica 23C; assay: MIC, conventional broth-dilution microtiter test; conditions: broth-dilution microtiter; Pasteurella hemolytica 23C; read-out: MIC
Protocol: as §1

[23] = system: Pasteurella hemolytica 41D; assay: MIC, conventional broth-dilution microtiter test; conditions: broth-dilution microtiter; Pasteurella hemolytica 41D; read-out: MIC
Protocol: as §1

[24] = system: Pasteurella multocida 17E; assay: MIC, conventional broth-dilution microtiter test; conditions: broth-dilution microtiter; Pasteurella multocida 17E, Bovine isolate; read-out: MIC
Protocol: as §1

[25] = system: Pasteurella multocida 22A; assay: MIC, conventional broth-dilution microtiter test; conditions: broth-dilution microtiter; Pasteurella multocida 22A; read-out: MIC
Protocol: as §1

[26] = system: Pasteurella multocida 40G; assay: MIC, conventional broth-dilution microtiter test; conditions: broth-dilution microtiter; Pasteurella multocida 40G; read-out: MIC
Protocol: as §1

[27] = system: Pasteurella multocida 60A; assay: MIC, conventional broth-dilution microtiter test; conditions: broth-dilution microtiter; Pasteurella multocida 60A, Avian isolate; read-out: MIC
Protocol: as §1

[28] = system: Pasteurella multocida 68C; assay: MIC, conventional broth-dilution microtiter test; conditions: broth-dilution microtiter; Pasteurella multocida 68C; read-out: MIC
Protocol: as §1

[29] = system: Staphylococcus aureus; assay: MIC, conventional broth-dilution microtiter test
Protocol: as §1

[30] = system: Streptococcus sp. 80; assay: MIC, conventional broth-dilution microtiter test; conditions: broth-dilution microtiter; Streptococcus sp. 80; read-out: MIC
Protocol: as §1

[31] = agar-dilution, Streptococcus Group D X66, read-out: MIC
[32] = agar-dilution, Streptococcus 9960, read-out: MIC
[33] = agar-dilution, Haemophilus influenzae 76, Ampicillin-resistant strain, read-out: MIC
[34] = agar-dilution, Haemophilus influenzae C.L., Ampicillin-sensitive strain, read-out: MIC
[35] = Staphylococcus epidermidis, EPI1

Row | Compound | MIC [1] | MIC [2] | MIC [3] | MIC [4] | MIC [5] | MIC [6] | MIC [7, 31] | MIC [9, 32] | MIC ([10]; Streptococcus pyogenes, C203) | MIC [11, 33] | MIC [12, 34] | MIC ([13]; Staphylococcus aureus, X400) | MIC [15] | MIC [17] | MIC [18] | MIC [21] | MIC [22] | MIC [23] | MIC [24] | MIC [25] | also measured
1 | CCC1OC(=O)CC(O)C(C)C(OC2OC(C)C(OC3CC(C)(O)C(O)C(C)O3)C(N(C)C)C2O)C(CCN2C(=O)c3ccccc3C2=O)CC(C)C(=O)C=CC(C)=CC1C (centres unmarked) [Compound 26, 20-N-Phthalimido-20-deoxy-20-dihydro-DMOT] | > 128 µg/mL | > 128 µg/mL | > 128 µg/mL | > 128 µg/mL | 32 µg/mL (≈ 37.3 µM) | 64 µg/mL (≈ 74.7 µM) | 128 µg/mL (≈ 149 µM) | > 128 µg/mL | 64 µg/mL (≈ 74.7 µM) | > 128 µg/mL | > 128 µg/mL | 64 µg/mL (≈ 74.7 µM) | 64 µg/mL (≈ 74.7 µM) | 50 µg/mL (≈ 58.3 µM) | 50 µg/mL (≈ 58.3 µM) | > 50 µg/mL | > 50 µg/mL | > 50 µg/mL | > 50 µg/mL | > 50 µg/mL | MIC ([8]; agar-dilution, Streptococcus pneumoniae Park I, read-out: MIC): 8 µg/mL (≈ 9.33 µM); MIC ([14]; agar-dilution, Staphylococcus epidermidis EPI2, read-out: MIC): 32 µg/mL (≈ 37.3 µM); MIC ([16]; agar-dilution, Staphylococcus epidermidis EPI1, read-out: MIC): 64 µg/mL (≈ 74.7 µM); MIC ([19]; broth-dilution microtiter, Mycoplasma gallisepticum, read-out: MIC): 12.5 µg/mL (≈ 14.6 µM); MIC ([20]; broth-dilution microtiter, Mycoplasma hyorhinis, read-out: MIC): 50 µg/mL (≈ 58.3 µM); MIC [26]: > 50 µg/mL; MIC [27]: > 50 µg/mL; MIC [28]: > 50 µg/mL; MIC ([29]; broth-dilution microtiter, read-out: MIC): > 50 µg/mL; MIC [30]: > 50 µg/mL
2 | CCC1OC(=O)CC(O)C(C)C(OC2OC(C)C(O)C(N(C)C)C2O)C(CCN(c2ccccc2)c2ccccc2)CC(C)C(=O)C=CC(C)=CC1CO (centres unmarked) [Compound 56, 20-Diphenylamino-20-deoxy-20-dihydro-OMT] | > 128 µg/mL | > 128 µg/mL | > 128 µg/mL |  | 2 µg/mL (≈ 2.66 µM) | 4 µg/mL (≈ 5.33 µM) |  |  | 2 µg/mL (≈ 2.66 µM) |  |  | 4 µg/mL (≈ 5.33 µM) | 2 µg/mL (≈ 2.66 µM) |  |  |  |  |  |  |  | MIC [7]: 4 µg/mL (≈ 5.33 µM); MIC ([8]; Streptococcus pneumoniae): 1 µg/mL (≈ 1.33 µM); MIC [9]; 9960: 8 µg/mL (≈ 10.7 µM); MIC ([11]; Haemophilus influenzae, 76): 16 µg/mL (≈ 21.3 µM); MIC ([12]; Haemophilus influenzae): 32 µg/mL (≈ 42.6 µM); MIC ([14]; Staphylococcus epidermidis, EPI2): 1 µg/mL (≈ 1.33 µM); MIC [16, 35]: 2 µg/mL (≈ 2.66 µM)
3 | CCC1OC(=O)CC(O)C(C)C(OC2OC(C)C(O)C(N(C)C)C2O)C(CCN2C(=O)c3ccccc3C2=O)CC(C)C(=O)C=CC(C)=CC1CN1C(=O)c2ccccc2C1=O (centres unmarked) [Compound 31, 20,23-Di-N-Phthalimido-20,23-dideoxy-20-dihydro-OMT] | > 128 µg/mL | > 128 µg/mL | > 128 µg/mL | > 128 µg/mL | 4 µg/mL (≈ 4.66 µM) | 4 µg/mL (≈ 4.66 µM) | 8 µg/mL (≈ 9.32 µM) | 16 µg/mL (≈ 18.6 µM) |  | > 128 µg/mL | > 128 µg/mL |  | 4 µg/mL (≈ 4.66 µM) | 25 µg/mL (≈ 29.1 µM) | 25 µg/mL (≈ 29.1 µM) | > 50 µg/mL | > 50 µg/mL | > 50 µg/mL | > 50 µg/mL | > 50 µg/mL | MIC ([8]; Streptococcus pneumoniae): 2 µg/mL (≈ 2.33 µM); MIC ([10]; agar-dilution, Streptococcus pyogenes C203, read-out: MIC): 16 µg/mL (≈ 18.6 µM); MIC ([13]; agar-dilution, Staphylococcus aureus X400, Methicillin-resistant strain, read-out: MIC): 16 µg/mL (≈ 18.6 µM); MIC [16, 35]: 4 µg/mL (≈ 4.66 µM); MIC [19]: 12.5 µg/mL (≈ 14.6 µM); MIC ([20]; Mycoplasma): 50 µg/mL (≈ 58.3 µM); MIC [26]: > 50 µg/mL; MIC [27]: > 50 µg/mL; MIC [28]: > 50 µg/mL; MIC [29]: 12.5 µg/mL (≈ 14.6 µM); MIC [30]: 12.5 µg/mL (≈ 14.6 µM)
